“And” between values parts separate entries of the source, which are not always exact repeats. Equal entries are not always repeated. Each block holds one compound with its values, some of them ahead of it.
Columns and labels:
[1] = tested on: S. cerevisiae; experiment: Yeast replicative lifespan by micro-manipulation; details: 10 μM; for Average lifespan: complete 2% glucose medium, wild type untreated 22.9
[2] = tested on: D. melanogaster; experiment: D. melanogaster adult survival assay; format: in vivo
Procedure: Survival assays were conducted independently with adult D. melanogaster in two laboratories. In the first laboratory, all trials used an yw marked wild-type strain. […] Newly eclosed adults were placed in 1L demography cages with approximately 75 males and 75 females. Three to four replicate 1L demography cages were used for each treatment group in each trial. Every two days, dead flies were removed and scored, and food vials were replenished. Food vials contained cornmeal-sugar-yeast diet with SAF yeast as either 2% or 3% by weight. […] Fresh stock solutions and adult media were prepared weekly. In the second laboratory, lifespan trials were conducted with the wild type strain Canton-S, dSir2^4.5 and […], University of Oregon), […], Stockholm University, Sweden), and dSir2^KG00871 (Drosophila Stock Center, Bloomington, Ind.). Larvae for all tests were reared on standard cornmeal-sugar-yeast diet. […] In all trials, 20 males with 20 females were placed into each of 10 vials/treatment group. Every two days, flies were passed into new vials and dead flies were counted. […] Fresh stock solution and adult media was prepared weekly.

[3] = target: T1, recombinant human SIRT1 (Homo sapiens, UniProt Q96EB6); experiment: SIRT1 fluorescent deacetylation assay (p53-382 acetylated peptide substrate); format: biochemical; details: for SIRT1 stimulating activity (in words): 25 μM NAD+, 25 μM p53-382 acetylated peptide
T1 sequence (Q96EB6 1-747): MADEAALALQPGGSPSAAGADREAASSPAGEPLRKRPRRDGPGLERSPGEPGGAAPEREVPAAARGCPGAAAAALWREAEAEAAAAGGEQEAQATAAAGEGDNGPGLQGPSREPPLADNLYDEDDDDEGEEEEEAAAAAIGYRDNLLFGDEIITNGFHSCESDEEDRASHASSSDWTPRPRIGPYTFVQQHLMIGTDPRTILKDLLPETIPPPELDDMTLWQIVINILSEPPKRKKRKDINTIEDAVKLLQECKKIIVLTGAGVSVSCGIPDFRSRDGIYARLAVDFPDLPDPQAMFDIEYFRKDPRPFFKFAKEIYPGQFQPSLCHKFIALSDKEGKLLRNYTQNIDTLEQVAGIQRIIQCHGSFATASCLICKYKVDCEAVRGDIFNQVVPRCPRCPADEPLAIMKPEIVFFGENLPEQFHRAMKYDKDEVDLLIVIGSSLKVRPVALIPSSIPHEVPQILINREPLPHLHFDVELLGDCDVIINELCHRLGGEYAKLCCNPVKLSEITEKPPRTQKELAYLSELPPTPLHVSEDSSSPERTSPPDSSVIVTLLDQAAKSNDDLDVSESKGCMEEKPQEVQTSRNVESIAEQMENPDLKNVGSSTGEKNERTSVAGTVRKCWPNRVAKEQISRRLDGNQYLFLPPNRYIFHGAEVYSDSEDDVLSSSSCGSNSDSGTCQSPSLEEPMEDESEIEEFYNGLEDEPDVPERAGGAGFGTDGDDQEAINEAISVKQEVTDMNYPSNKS
Text: To identify compounds that modulate SIRT1 activity, we screened a number of small molecule libraries using a fluorescent deacetylation assay in 96-well plates^26. The substrate used in the assay was a fluorogenic peptide based on the sequence encompassing the p53-K382 acetylation site, a known target of SIRT1 in vivo^20,21,27. This substrate was preferred over a variety of other fluorogenic peptide substrates that were based on other known HDAC targets (FIG. 5). The small molecule libraries included analogues of nicotinamide, ε-acetyl lysine, NAD^+, nucleotides, nucleotide analogues and purinergic ligands. From the initial screen, several sirtuin inhibitors were found (Supplementary Table 7). However, the most striking outcome was the identification of two compounds, quercetin and piceatannol, that stimulated SIRT1 activity five and eight-fold, respectively (Table 1). Both quercetin and piceatannol have been previously identified as protein kinase inhibitors^28,29.
His6-tagged recombinant SIRT1 and GST-tagged recombinant Sir2 were prepared as previously described^26. From 0.1 to 1 μg of SIRT1 and 1.5 μg of Sir2 were used per deacetylation assay (in 50 μl total reaction) as previously described^26. SIRT1 assays and certain of those for Sir2 employed the p53-382 acetylated substrate (‘Fluor de Lys-SIRT1’, BIOMOL) rather than FdL.
Themed compound libraries (BIOMOL) were used for primary and secondary screening. […] For water soluble compounds and negative controls, 1% v/v DMSO was added to the assay. […] HeLa cells were grown and the cellular deacetylation assays were performed and read, as above, but in full-volume 96-well microplates (Corning Costar 3595). Unless otherwise indicated all initial rate measurements were means of three or more replicates, obtained with single incubation times, at which point 5% or less of the substrate initially present had been deacetylated. Calculation of net fluorescence increases included subtraction of a blank value, which in the case of Sir2 was obtained by omitting the enzyme from the reaction and in the case of SIRT1 by adding an inhibitor (200 μM suramin or 1 mM nicotinamide) to the reaction prior to the acetylated substrate. […] All error bars represent the standard error of the mean.
All SIRT1 rate measurements used in the calculation of “Ratio to Control Rate” were obtained with 25 μM NAD^+ and 25 μM p53-382 acetylated peptide substrate were performed as described above and in K. T. Howitz et al. Nature (2003) 425: 191. All ratio data were calculated from experiments in which the total deacetylation in the control reaction was 0.25-1.25 μM peptide or 1-5% of the initial concentration of acetylated peptide.

[4] = tested on: Human 293 cells; experiment: Survival of 293 cells (Coulter counter); format: cell-based; details: 50 micromolar
Procedure: Human 293 were grown to exponential phase under standard conditions and subjected to a dose of compound (50 micromolar) for 96 hours. The number of live cells each time point was counted using a Coulter counter.

[5] = target: T2, SIRT1 deacetylase (Homo sapiens, UniProt Q96EB6); experiment: High-throughput SIRT1 screening protocol (384 well); format: biochemical; details: 200 μM NAD+, 5 μM Fluor de Lys-SIRT1 substrate; roughly 50 μM
T2 construct: purchased BIOMOL
T2 sequence (Q96EB6 1-747): T1 sequence (Q96EB6 1-747)
Procedure: The reaction mixture contains (final): 0.5 units/reaction SIRT1 deacetylase (BIOMOL); 200 μM NAD^+; 5 μM Fluor de Lys-SIRT1 substrate (BIOMOL); buffer (25 mM Tris/Cl, pH 8.0, 137 mM NaCl, 2.7 mM KCl, 1 mM MgCl2, and 1 mg/ml BSA). In addition, a reaction mixture containing no enzyme was made so that each well receiving compound has a corresponding “no enzyme control” well. Reactions were performed in black 384 well plates (NUNC) in a final volume of 25 μl/well.
The reactions were started by combining enzyme and substrate in a reaction mixture immediately prior to aliquoting in plates (or substrate only for “no enzyme control” plates). Mixture were aliquoted to plates using Biotek μFill (Biotek Instruments). Control mixtures were manually added to designated wells. A library compound was added at a desired concentration by pin transfer to both “with enzyme” and “no enzyme” plates. Compounds were added in at least triplicate (with enzyme reaction in duplicate and no enzyme controls) at a final concentration of roughly 50 μM. The plates were incubated at 37° C. for 30-60 minutes. Then 25 μl of 1× Developer II (BIOMOL) plus 2 mM nicotinamide were added to all wells to stop the reactions. The reactions were left for at least 30 minutes at 37° C. for the signal to develop. The plates were read in a microplate-reading fluorometer capable of excitation at a wavelength in the range of 350-380 nm and detection of emitted light in the range of 440-460 nm. A read time of 0.1 sec per well was used.

[6] = Solution stability (t1/2) from SIRT1 fold-stimulation of aged stock; format: physicochemical; details: ethanol stock 2.5 mM, room temperature, nitrogen atmosphere
Text: The fold-stimulation (ratio to control) obtained with a compound diluted from an aged stock solution was compared to an identical dilution from a stock solution freshly prepared from the solid compound. “t1/2” is defined as the time required for the SIRT1 fold-stimulation of the compound from the aged solution to decay to one-half of that obtained from a freshly prepared solution. […] Stocks were aged by storage at room temperature, in glass vials, under a nitrogen atmosphere.

[7] = tested on: C. elegans; experiment: C. elegans lifespan assay; format: in vivo; details: 100/500 μM, N2 worms, E. coli as food; untreated 100%
Procedure: Thus, the presence of resveratrol in the growth media of C. elegans extends their lifespan.
Bristol N2 (Caenorhabditis Genetics Center) was used as the wild-type strain. The sir-2.1 mutant strain was generated by backcrossing VC199 (sir-2.1 (ok434)) to N2 four times. Cultures were grown on standard NGM media and maintained on E. coli strain OP50. For the lifespan assays, synchronized animals were transferred to treatment plates as young adults (2 d after hatching, day 0 of assay), and were transferred to fresh treatment plates every 2 days for the first 6 to 8 days of the assay. […] For some lifespan trials, heat-killed OP50 were used as a food source. OP50 cultures were heated to 65° C. for 30 minutes, then pelleted and resuspended in 1/10 volume in S Basal supplemented with 10 mM MgSO4. In all assays, worms were monitored daily for mortality by gently probing with a platinum pick. Assays were performed at 24° C.

Structure (SMILES): Oc1cc(O)cc(/C=C/c2ccc(O)c(O)c2)c1 [piceatannol]
Average lifespan [1]: 24.0 generations

Structure (SMILES): O=c1c(O)c(-c2ccc(O)c(O)c2)oc2cc(O)ccc12 [fisetin]
longevity on restricted diet ([2]; restricted diet): neither resveratrol nor fisetin further increased longevity
lifespan extension (up to) ([2]; wild type, males and females, independent tests): up to 23%
Average lifespan [1]: 30.0 generations

SIRT1 stimulating activity (in words) [3]: did not significantly diminish
Structure (SMILES): Oc1cc(O)cc(/C=C/c2ccc(Cl)cc2)c1 [BML-217, 3,5-Dihydroxy-4′-chloro-trans-stilbene]

Structure (SMILES): CCc1ccc(/C=C/c2cc(O)cc(O)c2)cc1 [BML-225]
Survival of 293 cells ([4]; 0 h): 100%
Survival of 293 cells ([4]; 48 h): 5%
Survival of 293 cells ([4]; 96 h): 8%

Structure (SMILES): O=c1c(O)c(-c2ccc(O)c(O)c2)oc2cc(O)cc(O)c12 [quercetin]
Average lifespan [1]: 23.4 generations
stimulation of SIRT1 activity ([3]; initial screen): five

Structure (SMILES): COc1ccc(/C=C/c2cc(O)cc(O)c2)cc1 [BML-233, 3,5-Dihydroxy-4′-methoxy-trans-stilbene]
activation of SIRT1 (positive controls) [5]: 2.1 fold

SIRT1 stimulating activity (in words) [3]: abolished activity
Structure (SMILES): O=C(Nc1cc(O)cc(O)c1)c1ccccc1 [BML-219, N-(3,5-Dihydroxyphenyl)benzamide]

Structure (SMILES): O=C(/C=C/c1ccc(O)c(O)c1)c1ccc(O)cc1O [butein]
Average lifespan [1]: 35.5 generations

Structure (SMILES): CC(=O)Oc1cc(O)cc(/C=C/c2ccc(O)cc2)c1 [BML-221, 3,4′-Dihydroxy-5-acetoxy-trans-stilbene]
solution stability relative to resveratrol [6]: vast improvement
% change in yeast replicative lifespan relative to untreated organisms ([1]; 2% (w/v) glucose YPD, untreated 100%): 165%
% change in C. elegans lifespan relative to untreated organisms [7]: >100% (ongoing)

SIRT1 Vmax decrease ([3]; 50 μM nicotinamide, absence of resveratrol, NAD+ or p53-382 acetylated peptide varied): 30% and 36%
Structure (SMILES): NC(=O)c1cccnc1 [Nicotinamide]

activation of SIRT1 (positive controls) [5]: 3.28 fold
SIRT1 stimulating activity (in words) [3]: did not significantly diminish
Structure (SMILES): Oc1cc(O)cc(/C=C/c2ccccc2)c1 [Pinosylvin, 3,5-Dihydroxy-trans-stilbene]

SIRT1 stimulating activity (in words) [3]: nearly as detrimental
Structure (SMILES): Oc1cc(O)cc(/C=C/C2CCCCC2)c1 [BML-224]

Structure (SMILES): [N-]=[N+]=Nc1ccc(/C=C/c2cc(O)cc(O)c2)cc1 [BML-232]
SIRT1 stimulating activity (in words) [3]: very similar SIRT1 activating properties to resveratrol

SIRT1 stimulating activity (in words) [3]: absence of activity
Structure (SMILES): O=c1c(-c2ccc(O)cc2)coc2cc(O)cc(O)c12 [genistein]

Structure (SMILES): Cc1ccc(/C=C/c2cc(O)cc(O)c2)cc1 [BML-228]
Survival of 293 cells ([4]; 0 h): 100%
Survival of 293 cells ([4]; 48 h): 46%
Survival of 293 cells ([4]; 96 h): 32%

Structure (SMILES): CSc1ccc(/C=C/c2cc(O)cc(O)c2)cc1 [BML-230]
Survival of 293 cells ([4]; 0 h): 100%
Survival of 293 cells ([4]; 48 h): 55%
Survival of 293 cells ([4]; 96 h): 57%
SIRT1 dose response, stimulated activity compared with resveratrol ([3]; 25 μM NAD+ and p53-382 acetylated peptide, 20 minutes): exceeds that stimulated by resveratrol at all concentrations tested
ratio (R) of BML-230-stimulated to resveratrol-stimulated SIRT1 rate ([3]; 500 μM activator, 25 μM NAD+ and p53-382 acetylated peptide, 20 minutes): ~1.4

Reference: patent US7544497B2, “Compositions for manipulating the lifespan and stress response of cells and organisms” (President and Fellows of Harvard College, priority 2003, dated 2009)
